Like-named read-outs stand apart in the source and are kept apart here.
How the values were obtained:
Format in all cases: cell-based
[1] = test system: differentiated human THP-1 cells; experiment: stimulated release of TNF-α from differentiated human THP-1 cells (ELISA, dose-response)
Procedure, shortened: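 Human THP-1 cells were PMA-differentiated toward macrophages, and stimulated TNF-α release was measured by ELISA. EC50 values were taken from dose-response curves.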

mouse macrophages = experiment: stimulated release of TNF-α from mouse macrophages; conditions: for EC50: Macrophage
Procedure, shortened: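 EC50 derived from dose-response curves for stimulated TNF-α release from mouse macrophages.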

[2] = test system: TNF-α release stimulated by diprovocim-1 (3); experiment: antagonist test: inhibition of the activity of diprovocim-1 (3) on co-administration; conditions: co-administered at 5 μM
[3] = Homo sapiens, THP-1, running text, read-out: EC50, stimulated release of TNF-α from differentiated human THP-1 cells
[4] = Mus musculus, read-out: EC50, stimulated release of TNF-α from mouse macrophages
[5] = Homo sapiens, THP-1, table of 133-139 (two lipid side chains), human THP-1 cells, read-out: EC50 (nM) (THP-1)
[6] = table of 133-139 (two lipid side chains), mouse macrophages, read-out: EC50 (nM) (mouse)

O=C(NCCc1ccccc1)[C@@H]1CN(C(=O)c2ccc(C(=O)N3C[C@@H](C(=O)NCCc4ccccc4)[C@H](C(=O)NCCc4ccccc4)C3)cc2)C[C@H]1C(=O)NCCc1ccccc1 [Compound 8, trans,trans-1,1′-Terephthaloylbis-(N^3, N^4-diphenethylpyrrolidine-3,4-dicarboxamide)]
EC50 [1, 3]: > 5000 nM
activity in stimulating TNF-α release from human THP-1 cells (in words) ([1]; tested up to 5 μM where stated): inactive
EC50 (mouse macrophages; [4]): > 5000 nM
antagonist activity, inhibiting the activity of diprovocim-1 (3) [2]: incapable of acting as an antagonist

O=C(N[C@H]1C[C@@H]1c1ccccc1)[C@@H]1CN(C(=O)c2ccc(C(=O)N3C[C@@H](C(=O)N[C@@H]4C[C@H]4c4ccccc4)[C@H](C(=O)N[C@@H]4C[C@H]4c4ccccc4)C3)cc2)C[C@H]1C(=O)N[C@H]1C[C@@H]1c1ccccc1 [Compound 25, (3S,4S)-1-(4-((3S,4S)-3,4-Bis(((1R,2S)-2-phenylcyclopropyl)carbamoyl)-pyrrolidine-1-carbonyl)-benzoyl)—N^3,N^4-bis((1S,2R)-2-phenylcyclopropyl)-pyrrolidine-3,4-dicarboxamide]
EC50 ([1]; Homo sapiens, THP-1, Scheme 1, footnote a, read-out: EC50 TNF-α release from human THP-1 cells): 6 nM
EC50 (mouse macrophages; Mus musculus, Scheme 1, footnote b, read-out: EC50 TNF-α release from mouse macrophages): > 5000 nM

CCCCCCCCCCCCCCCCNC(=O)[C@@H]1CN(C(=O)c2ccc(C(=O)N3C[C@@H](C(=O)N[C@H]4C[C@@H]4c4ccccc4)[C@H](C(=O)N[C@H]4C[C@@H]4c4ccccc4)C3)cc2)C[C@H]1C(=O)NCCCCCCCCCCCCCCCC [Compound 133, (3S,4S)-1-(4-((3S,4S)-3,4-Bis(((1S,2R)-2-phenyl-cyclopropyl)carbamoyl)pyrrolidine-1-carbonyl)-benzoyl)-N^3,N^4-dihexadecylpyrrolidine-3,4-dicarboxamide]
EC50 [1, 5]: 2.5 nM
EC50 (mouse macrophages; [6]): 1000 nM

CCCCCCCCCCCCCCCCNC(=O)[C@@H]1CCN(C(=O)c2ccc(C(=O)N3C[C@@H](C(=O)N[C@H]4C[C@@H]4c4ccccc4)[C@H](C(=O)N[C@H]4C[C@@H]4c4ccccc4)C3)cc2)C1 [Compound 125, (3S,4S)-1-(4-((R)-3-(Hexadecylcarbamoyl)-pyrrolidine-1-carbonyl)benzoyl)-N^3,N^4-bis((1S,2R)-2-phenylcyclopropyl)pyrrolidine-3,4-dicarboxamide]
EC50 ([1]; table of 125-132 (one lipid side chain, R and S), human THP-1 cells, read-out: EC50 (nM) (THP-1)): 15 nM
EC50 (mouse macrophages; table of 125-132 (one lipid side chain, R and S), mouse macrophages, read-out: EC50 (nM) (mouse)): > 5000 nM

Nc1cc(C(=O)N2C[C@@H](C(=O)N[C@H]3C[C@@H]3c3ccccc3)[C@H](C(=O)N[C@H]3C[C@@H]3c3ccccc3)C2)ccc1C(=O)N1C[C@@H](C(=O)N[C@H]2C[C@@H]2c2ccccc2)[C@H](C(=O)N[C@H]2C[C@@H]2c2ccccc2)C1 [Compound 55, (3S,3′S,4S,4′S)-1,1′-(2-Amino-terephthaloyl)-bis(N^3,N^4-bis((1S,2R)-2-phenylcyclopropyl)-pyrrolidine-3,4-dicarboxamide)]
EC50 ([1]; Homo sapiens, THP-1, Table 3, TNF-α release from human THP-1 cells, read-out: EC50 (nM) (THP-1)): 1 nM
EC50 (mouse macrophages; Table 3, TNF-α release from mouse macrophages, read-out: EC50 (nM) (mouse)): 140 nM

O=C(N[C@H]1C[C@@H]1c1ccccc1)[C@@H]1CN(C(=O)c2ccc(C(=O)N3C[C@@H](C(=O)N[C@H]4C[C@@H]4c4ccccc4)[C@H](C(=O)N[C@H]4C[C@@H]4c4ccccc4)C3)cc2)C[C@H]1C(=O)N[C@H]1C[C@@H]1c1ccccc1 (racemic) [Compound 12, trans, trans-1,1′-Terephthaloylbis-(N^3,N^4-bis-(trans-2-phenylcyclopropyl)pyrrolidine-3,4-dicarboxamide)]
EC50 [1, 3]: 10 nM
efficacy of TNF-α release compared with reference agonist ([1]; versus LPS or Pam3CSK4, side-by-side): equally efficacious with LPS
EC50 (mouse macrophages; [4]): 100 nM

CCCCCCNC(=O)[C@@H]1CN(C(=O)c2ccc(C(=O)N3C[C@@H](C(=O)NCCCCCC)[C@H](C(=O)NCCCCCC)C3)cc2)C[C@H]1C(=O)NCCCCCC [Compound 145, (3S,3′S,4S,4′S)-1,1′-Terephthaloylbis(N^3,N^4-dihexylpyrrolidine-3,4-dicarboxamide)]
EC50 ([1]; Homo sapiens, THP-1, table of 140-146 (four lipid side chains), human THP-1 cells, read-out: EC50 (nM) (THP-1)): > 5000 nM
EC50 (mouse macrophages; table of 140-146 (four lipid side chains), mouse macrophages, read-out: EC50 (nM) (mouse)): > 5000 nM

O=C(N[C@H]1C[C@@H]1c1ccccc1)[C@@H]1CN(C(=O)c2ccc(C(=O)N3CCCC3)cc2)C[C@H]1C(=O)N[C@H]1C[C@@H]1c1ccccc1 [Compound 30, (3S,4S)—N^3,N^4-Bis((S, 2R)-2-phenyl-cyclopropyl)-1-(4-(pyrrolidine-1-carbonyl)benzoyl)-pyrrolidine-3,4-dicarboxamide]
EC50 [1, 3]: 2000 nM
fold less active/potent than diprovocim-1 (3) ([1]; human THP-1 cells): 20,000 fold
fold less active than 29 (mouse macrophages; printed as in mouse macrophages): 10 fold

O=C(NC1C[C@@H]1c1ccc(F)cc1)[C@@H]1CN(C(=O)c2ccc(C(=O)N3C[C@@H](C(=O)NC4C[C@@H]4c4ccc(F)cc4)[C@H](C(=O)NC4C[C@@H]4c4ccc(F)cc4)C3)cc2)C[C@H]1C(=O)NC1C[C@@H]1c1ccc(F)cc1 (stereo partly drawn) [Compound 118, (3S,3′S,4S,4′S)-1,1′-Terephthaloyl-bis(N^3,N^4-bis-((1S,2R)-2-(4-fluorophenyl)cyclopropyl)pyrrolidine-3,4-dicarboxamide)]
EC50 [1, 3]: 0.13 nM
EC50 (mouse macrophages; [4]): 1.2 nM

CCCCCCCCNC(=O)[C@@H]1CN(C(=O)c2ccc(C(=O)N3C[C@@H](C(=O)N[C@H]4C[C@@H]4c4ccccc4)[C@H](C(=O)N[C@H]4C[C@@H]4c4ccccc4)C3)cc2)C[C@H]1C(=O)NCCCCCCCC [Compound 137, (3S,4S)-1-(4-((3S,4S)-3,4-Bis(((1S,2R)-2-phenylcyclopropyl)carbamoyl)pyrrolidine-1-carbonyl)benzoyl)-N^3,N^4-dioctylpyrrolidine-3,4-dicarboxamide]
EC50 [1, 5]: 0.17 nM
EC50 (mouse macrophages; [6]): 10 nM

CCCCNC(=O)[C@@H]1CN(C(=O)c2ccc(C(=O)N3C[C@@H](C(=O)N[C@H]4C[C@@H]4c4ccccc4)[C@H](C(=O)N[C@H]4C[C@@H]4c4ccccc4)C3)cc2)C[C@H]1C(=O)NCCCC [Compound 139, (3S,4S)-1-(4-((3S,4S)-3,4-Bis(((1S,2R)-2-phenylcyclopropyl)carbamoyl)pyrrolidine-1-carbonyl)benzoyl)-N^3,N^4-dibutylpyrrolidine-3,4-dicarboxamide]
EC50 [1, 5]: 50 nM
EC50 (mouse macrophages; [6]): 360 nM

O=C(N[C@H]1C[C@@H]1c1ccccc1)[C@@H]1CN(C(=O)c2cccc3c(C(=O)N4C[C@@H](C(=O)N[C@H]5C[C@@H]5c5ccccc5)[C@H](C(=O)N[C@H]5C[C@@H]5c5ccccc5)C4)cccc23)C[C@H]1C(=O)N[C@H]1C[C@@H]1c1ccccc1 [Compound 47, (3S,3′S,4S,4′S)-1,1′-(Naphthalene-1,5-dicarbonyl)bis(N^3,N^4-bis((1S,2R)-2-phenylcyclopropyl)-pyrrolidine-3,4-dicarboxamide)]
EC50 ([1]; Homo sapiens, THP-1, Table 2, TNF-α release from human THP-1 cells, read-out: EC50 (nM) (THP-1)): > 5000 nM
EC50 (mouse macrophages; Table 2, TNF-α release from mouse macrophages, read-out: EC50 (nM) (mouse)): > 5000 nM

O=C(NCCc1ccc(F)cc1)[C@@H]1CN(C(=O)[C@@H]2CCC[C@@H](C(=O)N3C[C@@H](C(=O)NCCc4ccc(F)cc4)[C@H](C(=O)NCCc4ccc(F)cc4)C3)C2)C[C@H]1C(=O)NCCc1ccc(F)cc1 [Compound 106, (3S,3′S,4S,4′S)-1,1′-((1R,3R)-Cyclohexane-1,3-dicarbonyl)bis(N^3,N^4-bis(4-fluorophenethyl)-pyrrolidine-3,4-dicarboxamide)]
EC50 ([1]; Homo sapiens, THP-1, Table 7, TNF-α release from human THP-1 cells, read-out: EC50 (nM) (THP-1)): > 5000 nM
EC50 (mouse macrophages; Table 7, TNF-α release from mouse macrophages, read-out: EC50 (nM) (mouse)): > 5000 nM

CC(C)(C)OC(=O)CCOCCOCCOCCNC(=O)COc1cc(C(=O)N2C[C@@H](C(=O)N[C@H]3C[C@@H]3c3ccccc3)[C@H](C(=O)N[C@H]3C[C@@H]3c3ccccc3)C2)ccc1C(=O)N1C[C@@H](C(=O)N[C@H]2C[C@@H]2c2ccccc2)[C@H](C(=O)N[C@H]2C[C@@H]2c2ccccc2)C1 [Compound 149, tert-Butyl 1-(2,5-Bis((3S,4S)-3,4-bis(((1S,2R)-2-phenylcyclopropyl)carbamoyl)pyrrolidine-1-carbonyl)phenoxy)-2-oxo-6,9,12-trioxa-3-azapentadecan-15-oate]
EC50 ([1]; Homo sapiens, THP-1, table of functionalized derivatives 147-151, human THP-1 cells, read-out: EC50 (nM) (THP-1)): 20 nM
EC50 (mouse macrophages; table of functionalized derivatives 147-151, mouse macrophages, read-out: EC50 (nM) (mouse)): 150 nM
